The record followed here is article PMC8667816, “VTT-006, an anti-mitotic compound, binds to the Ndc80 complex and suppresses cancer cell growth in vitro” (Oncoscience, 2021).

Experiment [1] concerns the target T1, GFP-tagged Ndc80 complex (Ndc80-GFP) (Homo sapiens, UniProt O14777).
T1 construct: with Kinetochore protein Nuf2; Kinetochore protein Spc25; Kinetochore protein Spc24
In words: single-molecule TIRF, residence time of Ndc80-GFP on microtubules. Particulars: 10 μM VTT-006; Taxol-stabilized microtubules, BRB80 pH 6.9; Ndc80 6–10 pM. Type of experiment: biochemical.

Experiment [2] deals with T2, recombinant Ndc80 complex (Bonsai; Ndc80^bonsai) (Homo sapiens, UniProt O14777).
T2 construct: Ndc80 bonsai: globular domains with shortened rod; plasmid from A. Musacchio; E. coli BL21(DE3), GST cut off with PreScission; with Kinetochore protein Nuf2; Kinetochore protein Spc25; Kinetochore protein Spc24
T2 sequence (O14777 1-286 limits assumed): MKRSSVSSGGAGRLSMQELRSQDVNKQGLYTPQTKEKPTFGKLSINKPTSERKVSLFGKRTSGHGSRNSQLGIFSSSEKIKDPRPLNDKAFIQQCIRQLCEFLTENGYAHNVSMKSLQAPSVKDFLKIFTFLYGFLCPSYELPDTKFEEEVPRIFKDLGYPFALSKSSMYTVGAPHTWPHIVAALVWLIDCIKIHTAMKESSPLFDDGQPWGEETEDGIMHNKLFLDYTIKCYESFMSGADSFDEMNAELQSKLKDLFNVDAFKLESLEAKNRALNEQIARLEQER
T2 sequence (Q9BZD4 1-169 partner limits assumed): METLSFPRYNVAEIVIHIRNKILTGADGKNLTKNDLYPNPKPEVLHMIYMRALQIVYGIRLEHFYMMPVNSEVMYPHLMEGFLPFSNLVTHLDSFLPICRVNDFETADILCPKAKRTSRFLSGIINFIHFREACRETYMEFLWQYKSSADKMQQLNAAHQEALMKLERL
T2 sequence (Q9HBM1 118-224 partner limits assumed): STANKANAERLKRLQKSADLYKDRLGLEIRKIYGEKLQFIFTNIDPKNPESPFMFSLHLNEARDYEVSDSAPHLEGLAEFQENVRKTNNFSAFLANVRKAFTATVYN
T2 sequence (Q8NBT2 122-197 partner limits assumed): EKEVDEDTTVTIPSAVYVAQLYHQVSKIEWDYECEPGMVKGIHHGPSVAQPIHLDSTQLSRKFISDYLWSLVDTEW
In words: fluorescence anisotropy of the compound (ex […] nm, em […] nm). The note with it: PBS, 23 °C; 5 μM VTT-006, 1–15 μM protein; one site model with ligand depletion. Format: binding.

Molecules are shown by their SMILES.

T1 sequence (O14777 whole entry): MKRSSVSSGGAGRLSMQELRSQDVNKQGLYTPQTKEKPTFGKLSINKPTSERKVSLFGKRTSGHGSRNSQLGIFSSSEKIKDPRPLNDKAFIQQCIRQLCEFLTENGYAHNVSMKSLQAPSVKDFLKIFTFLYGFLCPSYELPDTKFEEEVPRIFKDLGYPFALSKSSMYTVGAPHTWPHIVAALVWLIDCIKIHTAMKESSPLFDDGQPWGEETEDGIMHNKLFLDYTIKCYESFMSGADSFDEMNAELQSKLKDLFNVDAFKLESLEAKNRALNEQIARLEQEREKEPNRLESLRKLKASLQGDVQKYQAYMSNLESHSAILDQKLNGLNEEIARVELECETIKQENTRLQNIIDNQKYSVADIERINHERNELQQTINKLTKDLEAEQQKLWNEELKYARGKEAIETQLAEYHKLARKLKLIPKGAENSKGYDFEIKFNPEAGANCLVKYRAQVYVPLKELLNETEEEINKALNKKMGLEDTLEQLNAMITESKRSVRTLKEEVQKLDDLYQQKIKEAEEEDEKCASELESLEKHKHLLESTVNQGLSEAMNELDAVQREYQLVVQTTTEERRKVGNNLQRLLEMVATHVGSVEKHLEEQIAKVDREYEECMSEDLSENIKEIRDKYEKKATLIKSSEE
T1 sequence (Q9BZD4 whole entry partner): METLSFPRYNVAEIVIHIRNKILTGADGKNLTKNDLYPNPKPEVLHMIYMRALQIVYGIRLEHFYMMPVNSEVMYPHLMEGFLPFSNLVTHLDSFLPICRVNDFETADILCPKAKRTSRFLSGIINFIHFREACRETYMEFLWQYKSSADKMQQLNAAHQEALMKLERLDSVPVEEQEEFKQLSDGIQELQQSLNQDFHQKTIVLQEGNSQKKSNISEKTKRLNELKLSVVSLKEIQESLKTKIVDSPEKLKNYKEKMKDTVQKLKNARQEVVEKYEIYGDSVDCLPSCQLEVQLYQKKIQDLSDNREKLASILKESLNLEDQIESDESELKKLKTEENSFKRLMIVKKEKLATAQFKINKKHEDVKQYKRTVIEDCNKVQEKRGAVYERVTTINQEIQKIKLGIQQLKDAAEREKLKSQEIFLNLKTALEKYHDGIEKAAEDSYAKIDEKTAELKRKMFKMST
T1 sequence (Q8NBT2 whole entry partner): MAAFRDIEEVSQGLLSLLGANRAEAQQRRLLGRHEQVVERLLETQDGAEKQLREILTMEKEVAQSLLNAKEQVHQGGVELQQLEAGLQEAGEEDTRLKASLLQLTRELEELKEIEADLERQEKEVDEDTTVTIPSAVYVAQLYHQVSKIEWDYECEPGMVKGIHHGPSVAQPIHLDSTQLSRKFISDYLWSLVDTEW
T1 sequence (Q9HBM1 whole entry partner): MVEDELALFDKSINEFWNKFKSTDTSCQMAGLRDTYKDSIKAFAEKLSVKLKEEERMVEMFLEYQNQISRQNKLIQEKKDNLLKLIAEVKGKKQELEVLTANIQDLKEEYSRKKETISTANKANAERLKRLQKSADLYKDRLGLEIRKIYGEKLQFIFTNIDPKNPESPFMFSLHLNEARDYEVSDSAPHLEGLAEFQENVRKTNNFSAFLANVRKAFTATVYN

As for `CC#CC(=O)N1CCc2c([nH]c3ccccc23)C1c1ccc(OC)c(C)c1` (stereo not drawn) [VTT-006, 2-(2-butynoyl)-1-(4-methoxy-3-methylphenyl)-2,3,4,9-tetrahydro-1H-beta-carboline], the koff result in experiment [1] is on record as “residence time of Ndc80-GFP on microtubules was significantly shorter in the presence of VTT-006”. Further, the Kd – broadly, the free concentration of one partner at which half of the binding sites on the other are occupied at equilibrium, for simple one-to-one binding – in experiment [2] was found to be 2070 ± 2840 nM.
